# Test results reported in patent US9439845B2, “Glycyrrhetinimidyl hydroxyproline alkyl esters and protected derivatives thereof” (REVLON CONSUMER PRODUCTS CORPORATION, priority 2013, dated 2016).
# Tests used:
# Type in all cases: cell-based
# [1] = tested on: extracellular collagen III in normal human dermal fibroblasts (NHDF); assay: Extracellular Collagen III expression in fibroblasts (fiber deposition); conditions: for % Control (extracellular Collagen III) / % Stimulation (extracellular Collagen III) / Mean Collagen III (fibers): 72 hours
# Description: (§1) It is believed that the glycyrrhetinimidyl hydroxyproline alkyl esters of the present invention are useful for promoting collagen production in human skin. In an exemplary test, normal human dermal fibroblasts (NHDF) were cultured in culture medium for 24 hours. The medium was then replaced with culture medium containing or not (control) the test compound or the reference compound (Vitamin C) or the reference mix (Vitamin C and TGF-β). The cells were then incubated for 72 hours. After incubation, the culture medium was then collected and the cells were washed and fixed. Cells were then labeled with a primary antibody (anti-collagen I or anti-collagen III). […] An INCell Analyzer 1000 was used to take images of each well. The labeling was quantified by the measurement of the fluorescence intensity or fluorescence area normalized to the total number of cells.
# (§2) A collagen release promoter, such as Vitamin C, could be used to release the intracellular collagen into the extracellular matrix. Note that in Tables 3 and 4 below, the apparent inhibition of glycyrrhetinimidyl hydroxyproline methyl ester on extracellular collagen fiber deposition is due to an artifact effect.
# [2] = tested on: collagen I in normal human dermal fibroblasts (NHDF); assay: Total Collagen I expression in fibroblasts (immunofluorescence, INCell Analyzer 1000); conditions: for % Control (total Collagen I) / % Stimulation (total Collagen I) / Mean Collagen I (AU): 72 hours; for Mean Collagen I (AU): AU = fluorescence intensity/number of cells
# Description: as §1
# [3] = tested on: collagen III in normal human dermal fibroblasts (NHDF); assay: Total Collagen III expression in fibroblasts (immunofluorescence, INCell Analyzer 1000); conditions: for % Control (total Collagen III) / % Stimulation (total Collagen III) / Mean Collagen III (AU): 72 hours
# Description: as §1
# [4] = tested on: extracellular collagen I in normal human dermal fibroblasts (NHDF); assay: Extracellular Collagen I expression in fibroblasts (fiber deposition); conditions: for % Control (extracellular Collagen I) / % Stimulation (extracellular Collagen I) / Mean Collagen I (fibers): 72 hours
# Description: as §1, §2
# [5] = 30 μM, apparent inhibition said to be an artifact
# [6] = qualitative analysis of the images
# [7] = 10 μM, apparent inhibition said to be an artifact
substance,measurement,setting,value
glycyrrhetinimidyl hydroxyproline methyl ester,% Control (extracellular Collagen III),[1]; 3.3 μM,105%
same,% Stimulation (extracellular Collagen III),[1]; 3.3 μM,5%
same,Mean Collagen III (fibers),[1]; 3.3 μM,34 fibers
same,% Control (extracellular Collagen III),[1]; 10 μM,107%
same,% Stimulation (extracellular Collagen III),[1]; 10 μM,7%
same,Mean Collagen III (fibers),[1]; 10 μM,34 fibers
same,% Control (extracellular Collagen III),[1]; [5],78%
same,% Stimulation (extracellular Collagen III),[1]; [5],−22%
same,Mean Collagen III (fibers),[1]; [5],25 fibers
same,effect on collagen III extracellular fiber deposition,[1]; [6],no significant effect
same,extracellular release of collagen III,[1]; text summary of Table 4,no significant increase
same,% Control (total Collagen I),[2]; 3.3 μM,102%
same,% Stimulation (total Collagen I),[2]; 3.3 μM,2%
same,Mean Collagen I (AU),[2]; 3.3 μM,222721 AU
same,% Control (total Collagen I),[2]; 10 μM,97%
same,% Stimulation (total Collagen I),[2]; 10 μM,−3%
same,Mean Collagen I (AU),[2]; 10 μM,210888 AU
same,% Control (total Collagen I),[2]; 30 μM,126%
same,% Stimulation (total Collagen I),[2]; 30 μM,26%
same,Mean Collagen I (AU),[2]; 30 μM,274297 AU
same,increase of the NHDF's neosynthesis of collagen I,[2]; maximum over tested concentrations (text summary of Table 1),up to 26%
same,% Control (total Collagen III),[3]; 3.3 μM,105%
same,% Stimulation (total Collagen III),[3]; 3.3 μM,5%
same,Mean Collagen III (AU),[3]; 3.3 μM,177399 AU
same,% Control (total Collagen III),[3]; 10 μM,118%
same,% Stimulation (total Collagen III),[3]; 10 μM,18%
same,Mean Collagen III (AU),[3]; 10 μM,199984 AU
same,% Control (total Collagen III),[3]; 30 μM,142%
same,% Stimulation (total Collagen III),[3]; 30 μM,42%
same,Mean Collagen III (AU),[3]; 30 μM,240374 AU
same,increase of the NHDF's neosynthesis of collagen III,[3]; maximum over tested concentrations (text summary of Table 2),up to 42%
same,% Control (extracellular Collagen I),[4]; 3.3 μM,102%
same,% Stimulation (extracellular Collagen I),[4]; 3.3 μM,2%
same,Mean Collagen I (fibers),[4]; 3.3 μM,63 fibers
same,% Control (extracellular Collagen I),[4]; [7],79%
same,% Stimulation (extracellular Collagen I),[4]; [7],−21%
same,Mean Collagen I (fibers),[4]; [7],48 fibers
same,% Control (extracellular Collagen I),[4]; [5],70%
same,% Stimulation (extracellular Collagen I),[4]; [5],−30%
same,Mean Collagen I (fibers),[4]; [5],43 fibers
same,effect on collagen I extracellular fiber deposition,[4]; [6],no significant effect
same,extracellular release of collagen I,[4]; summary of Table 3,no significant increase
